Measurements as given in patent US20070265451A1, “Process for the preparation of oxazolidinones and method of use thereof” (Board of Trustees of Michigan State University, priority 2001, published 2007).
Values after ≈ are worked out from the molar mass of the structure shown. Like-named read-outs stand apart in the source and are kept apart here.

Experiments:
Assay type in all cases: cell-based
[1] = test system: Erythroid bone marrow cells; assay: Bone marrow cell growth inhibition, erythroid
Description: (§1) In general, many of the substituted oxazolidinones were as effective as ZYVOX.

[2] = test system: Enterococcus faecalis 29212; assay: Broth microdilution MIC, Enterococcus faecalis ATCC 29212; settings: for MIC90 / MIC: Enterococcus faecalis; for MIC90: ATCC29213, Table 1, read-out: MIC90-100 EF ATCC 29213; for MIC: ATCC29212, Table 2, read-out: MIC(90-100) EF-ATCC 29212
[3] = test system: Megakaryocytic bone marrow cells; assay: Bone marrow cell growth inhibition, megakaryocytic
Description: as §1

[4] = test system: Myeloid bone marrow cells; assay: Bone marrow cell growth inhibition, myeloid
Description: as §1

[5] = test system: Staphylococcus aureus 29213; assay: Broth microdilution MIC, Staphylococcus aureus ATCC 29213; settings: for MIC90 / MIC: Staphylococcus aureus; for MIC90: ATCC29212, Table 1, read-out: MIC90-100 SA ATCC 29212; for MIC: ATCC29213, Table 2, read-out: MIC(90-100) SA-ATCC 29213
Description: (§2) See, NCCLS document M7-A5. Methods for Dilution Antimicrobial Susceptibility Tests for Bacteria That Grow Aerobically; Approved Standard-Fifth Edition. Volume 20, Number 2. January 2000, (ISBN 1-56238-394-9) and Lorian V. Antibiotics. Laboratory Medicine. 4th ed. Baltimore: Williams and Wilkins, pp. 52-111 (1996). For subsequent testing, the following strains have been used: Staphylococcus aureus NRS4 (992; HIP5836; New Jersey) (Smith et al., New Engl. J. Med. 340: 493-501 (1999); Tenover et al., J. Clin. Microbiol. 36: 1020-1027 (1998)), Staphylococcus aureus NRS3 (963sm; HIP5827; Michigan) (Smith et al., ibid.; Tenover et al., ibid.), Staphylococcus aureus NRS103 (Becker) (Karakawa and Vann, Sem. Infect. Dis. 4: 285 (1982), Staphylococcus aureus NRS102 (Reynolds) Karakawa and Vann, ibid; McMurray et al., JID 162: 759-762 (1990)), Staphylococcus epidermidis NRS101 (ATCC 35984), Streptococcus pneumoniae (ATCC 49619), Enterococcus faecalis (ATCC 51299), and Staphylococcus aureus (ATCC 43300.
(§3) Stock cultures of these strains were obtained by seeding colonies from overnight streak plates (Tryptic Soy Agar II (TSAII) and 5% sheep's blood (SB) agar plates: Becton Dickinson, CA#2211261) into sterile Mueller-Hinton Broth (MHB)(Becton Dickinson, CA#211443) and growing the suspensions to mid-late log phase in 13 mL screw-cap tubes. Glycerol (Sigma, CA#G-6279) was sterilized by autoclaving for 15 minutes at 121° C. in 6 mL volumes, and then stored at 2-8° C. This was diluted to 20% in dH2O, and then added 1:1 (250 μL:250 μL, 10% final glycerol concentration) to the logarithmically growing bacterial suspension of each strain. Tubes were frozen and stored at −70° C. Purity of the stock cultures was tested by thawing one tube of each strain in a water bath at 37° C. and plating them on TSAII with 5% SB. Plates were incubated overnight at 37° C. and colonies were examined for morphology. Growth curves and approximate CFU/mL were also obtained.
(§4) High purity substituted oxazolidinones prepared according to the method of the present invention and a ZYVOX standard (ZYVOX is a trade name for linezolid available from Pharmacia Corporation) were provided by Synthon Corporation, Monmouth Junction, N.J. Compounds were dissolved at 10 mg/mL in DMSO, as after a dilution of approx. 39.0 to reach the desired final starting concentration of 256 ug/ml, the concentration of DMSO is approximately 2.5%. Compounds were then stored at room temperature (25° C.) in the dark.
(§5) Antimicrobial susceptibility screening was as follows. All compounds were initially screened for activity in duplicate at 256 μg/mL (2.5% DMSO), including ZYVOX, the positive control for antimicrobial activity. A single well of bacterially inoculated 2.5% DMSO served as a positive control for bacterial growth, while a well of DMSO inoculated with of 50 μL of sterile 0.9% saline served as a negative growth control. Controls were prepared on every microplate, so that 46 was the maximum number of compounds that were screened per plate. Broth was pipetted into sterile microcentrifuge tubes, to which the compounds were then added (1:19.53 dilution or 2× final concentration). Each tube was vortexed, and 50 μL was immediately transferred to the microplate wells for each strain. Solubility was assessed by visual observation. MB (medium broth solubility) was recorded if the solution appeared only slightly cloudy. LB (low broth solubility) was recorded if the solution was extremely cloudy, and especially if larger, clumpy precipitates formed. Bacteria were grown as described above, although absorbance was measured at 650 nm and bacteria were diluted to an initial OD of 0.12-0.15. Bacteria were then further diluted 1:100 with 0.9% sterile saline. Within 15 minutes of this final dilution, 50 μL of this suspension was added to each well for a final volume of […], and a final bacterial concentration of 1×10^5 CFU/mL (except for the negative control well). Plates were grown as above and all observations were recorded. […]

[6] = test system: Staphylococcus aureus (ATCC 43300); assay: Broth microdilution MIC, MR SA ATCC 43300; settings: ATCC43300, methicillin resistant SA, read-out: MIC90-100 MR SA ATCC 43300
Description: as §2, §3, §4, §5

[7] = test system: Staphylococcus aureus NRS3 (963sm; HIP5827; Michigan); assay: Broth microdilution MIC, MR SA Michigan; settings: strain Michigan; for MIC90: Staphylococcus aureus, NRS3, methicillin resistant SA, read-out: MIC90-100 MR SA Michigan
Description: as §2, §3, §4, §5

[8] = test system: Enterococcus faecalis (ATCC 51299); assay: Broth microdilution MIC, Enterococcus faecalis ATCC 51299
Description: as §2, §3, §4, §5

[9] = test system: Staphylococcus aureus NRS4 (992; HIP5836; New Jersey); assay: Broth microdilution MIC, MR SA New Jersey; settings: strain New Jersey; for MIC90: Staphylococcus aureus, NRS4, methicillin resistant SA, read-out: MIC90-100 MR SA New Jersey
Description: as §2, §3, §4, §5

[10] = test system: Staphylococcus aureus NRS103 (Becker); assay: Broth microdilution MIC, Ref SA Becker; settings: strain Becker, read-out: MIC90-100 Ref SA Becker
Description: as §2, §3, §4, §5

[11] = test system: Staphylococcus aureus NRS102 (Reynolds); assay: Broth microdilution MIC, Pen. R SA Reynolds; settings: strain Reynolds, read-out: MIC90-100 Pen. R SA Reynolds
Description: as §2, §3, §4, §5

[12] = ATCC51299, vancomycin sensitive EF, ATCC 51299, read-out: MIC90-100 VS EF ATCC 51299
[13] = ATCC51299, read-out: MIC90-100 VS EF ATCC 51299

Structure (SMILES) | IC50 [1] | MIC90 ([2]; EF, strain printed ATCC 29213) | IC50 [3] | IC50 [4] | MIC90 ([5]; SA, strain ATCC 29212) | MIC90 [6] | MIC90 [7] | MIC90 [8, 12] | MIC90 [9] | MIC [5] | MIC90-100 EF ATCC 29213 ([2]; Table 1, EF, strain printed ATCC 29213) | MIC90-100 MR SA Michigan ([7]; methicillin resistant SA) | MIC90-100 MR SA New Jersey ([9]; methicillin resistant SA) | MIC90-100 SA ATCC 29212 ([5]; Table 1, SA, strain ATCC 29212) | MIC90 [10] | MIC90 [11] | MIC [2] | MIC90 [8, 13]
COc1ccc(C(=O)CN2C[C@@H](COS(=O)(=O)c3ccc(Cl)c4nonc34)OC2=O)cc1 [Compound 207] | 0.2 µg/mL (≈ 0.415 µM) | 250 µg/mL (≈ 519 µM) | 3 µg/mL (≈ 6.23 µM) | 0.8 µg/mL (≈ 1.66 µM) | 64 to 125 µg/mL (≈ 133 to 259 µM) | – | – | – | – | – | – | – | – | – | – | – | – | –
CC(C)N1C[C@@H](COS(=O)(=O)c2ccc([N+](=O)[O-])cc2)OC1=O [Compound 253] | 7 µg/mL (≈ 20.3 µM) | 250 µg/mL (≈ 726 µM) | 10 µg/mL (≈ 29 µM) | 30 µg/mL (≈ 87.1 µM) | 8 to 16 µg/mL (≈ 23.2 to 46.5 µM) | > 256 µg/mL | 256 µg/mL (≈ 743 µM) | > 256 µg/mL | 256 µg/mL (≈ 743 µM) | 15.6 µg/mL (≈ 45.3 µM) | – | – | – | – | – | – | – | –
CN(C)C(=O)CN1C[C@@H](COS(=O)(=O)c2ccc([N+](=O)[O-])cc2)OC1=O [Compound 1021] | 20 µg/mL (≈ 51.6 µM) | 250 µg/mL (≈ 645 µM) | 0.9 µg/mL (≈ 2.32 µM) | 20 µg/mL (≈ 51.6 µM) | 16 to 32 µg/mL (≈ 41.3 to 82.6 µM) | 100 µg/mL (≈ 258 µM) | 256 µg/mL (≈ 661 µM) | > 256 µg/mL | 256 µg/mL (≈ 661 µM) | 32 µg/mL (≈ 82.6 µM) | – | – | – | – | – | – | – | –
CCN1C[C@@H](COS(=O)(=O)c2ccc([N+](=O)[O-])cc2)OC1=O [Compound 1192] | 0.05 µg/mL (≈ 0.151 µM) | – | 0.6 µg/mL (≈ 1.82 µM) | 5 µg/mL (≈ 15.1 µM) | – | 128 µg/mL (≈ 388 µM) | – | > 256 µg/mL | – | 8 µg/mL (≈ 24.2 µM) | 250 µg/mL (≈ 757 µM) | 256 µg/mL (≈ 775 µM) | 256 µg/mL (≈ 775 µM) | 4 to 8 µg/mL | – | – | – | –
CN1C[C@@H](CNSc2ccc([N+](=O)[O-])cc2)OC1=O [Compound 1687] | 0.01 µg/mL (≈ 0.0353 µM) | 2 µg/mL (≈ 7.06 µM) | 6 µg/mL (≈ 21.2 µM) | 20 µg/mL (≈ 70.6 µM) | 2 µg/mL (≈ 7.06 µM) | – | 2 µg/mL (≈ 7.06 µM) | – | 2 µg/mL (≈ 7.06 µM) | – | – | – | – | – | 3 µg/mL (≈ 10.6 µM) | 3 µg/mL (≈ 10.6 µM) | – | –
CC(C)N1C[C@@H](CNSc2ccc([N+](=O)[O-])cc2)OC1=O [Compound 1705] | 0.5 µg/mL (≈ 1.61 µM) | 4 µg/mL (≈ 12.8 µM) | 0.08 µg/mL (≈ 0.257 µM) | 5 µg/mL (≈ 16.1 µM) | 2 µg/mL (≈ 6.42 µM) | 4 µg/mL (≈ 12.8 µM) | 2 µg/mL (≈ 6.42 µM) | 8 µg/mL (≈ 25.7 µM) | 3 µg/mL (≈ 9.64 µM) | – | – | – | – | – | 4 µg/mL (≈ 12.8 µM) | 32 µg/mL (≈ 103 µM) | – | –
CCN1C[C@H](CNSc2ccc([N+](=O)[O-])cc2)OC1=O [Compound 1715] | 0.7 µg/mL (≈ 2.35 µM) | 4 µg/mL (≈ 13.5 µM) | 0.08 µg/mL (≈ 0.269 µM) | 5 µg/mL (≈ 16.8 µM) | 2 µg/mL (≈ 6.73 µM) | 4 µg/mL (≈ 13.5 µM) | 3 µg/mL (≈ 10.1 µM) | 8 µg/mL (≈ 26.9 µM) | 3 µg/mL (≈ 10.1 µM) | – | – | – | – | – | 8 µg/mL (≈ 26.9 µM) | 32 µg/mL (≈ 108 µM) | – | –
O=C1O[C@@H](COSc2ccc([N+](=O)[O-])cc2)CN1c1ccc([N+](=O)[O-])cc1 [Compound 1808] | – | 2 µg/mL (≈ 5.11 µM) | – | – | 4 to 8 µg/mL (≈ 10.2 to 20.4 µM) | 8 µg/mL (≈ 20.4 µM) | 3 µg/mL (≈ 7.67 µM) | – | 4 µg/mL (≈ 10.2 µM) | 8 µg/mL (≈ 20.4 µM) | – | – | – | – | 16 µg/mL (≈ 40.9 µM) | 16 µg/mL (≈ 40.9 µM) | 2 µg/mL (≈ 5.11 µM) | 2 µg/mL (≈ 5.11 µM)
O=C(OC[C@H]1CN(c2ccc([N+](=O)[O-])cc2)C(=O)O1)Oc1ccc([N+](=O)[O-])cc1 [Compound 1809] | – | 4 µg/mL (≈ 9.92 µM) | – | – | 4 to 8 µg/mL (≈ 9.92 to 19.8 µM) | 4 µg/mL (≈ 9.92 µM) | 3 µg/mL (≈ 7.44 µM) | – | 3 µg/mL (≈ 7.44 µM) | 8 µg/mL (≈ 19.8 µM) | – | – | – | – | 4 µg/mL (≈ 9.92 µM) | 8 µg/mL (≈ 19.8 µM) | 4 µg/mL (≈ 9.92 µM) | 2 µg/mL (≈ 4.96 µM)
